Source: US4605673A, “7H-dibenzo(a,c,)cyclohepten-5-one-(7) derivatives” (Warner-Lambert Company, priority 1982, dated 1986)
Counter-ions that a name gives are not always drawn. Like-named read-outs stand apart in the source and are kept apart here.

How the values were obtained:
Toxicity (LD50) = conditions: in vivo
[1] = test system: Reserpine-induced hypothermia; assay: (A) Reserpine-induced hypothermia in mice (antidepressive action); type: in vivo; conditions: Mus musculus, read-out: Minimal dosage which leads to normalization of body temperature (A)
Description: The minimal dosage is given which leads to normalization of body temperature measured rectally.

spontaneous motility = assay: (C) Locomotive activity (spontaneous motility), photoelectric systems; type: in vivo; conditions: mice; for Spontaneous motility (C), M = methaqualone: 40 m/g i.g.
Method: (C) The locomotive activity reflects the stimulating or depressive effects on the C.N. system. The spontaneous motility (impulses per minute) was measured in mice by means of photoelectric systems according to Irwin (Rev. Can. Biol. 20, 239 (1961). K in the margin=control, (twice), M=methaqualone (40 m/g i.g.) and S=substance.

[2] = test system: hexobarbital sleeping period; assay: (D) Hexobarbital sleeping period (central sedating or stimulating effects); type: in vivo; conditions: mice, 82.5 mg/kg hexobarbital IV
Method: (D) The lengthening of the sleeping period is a common in vivo method for the determination of central sedating or stimulating effects. The test animals are mice subsequent to intravenous (IV) injection with 82.5 mg/kg hexobarbital. The influence on the sleeping period under the trial substance is given in % for control purposes.

[3] = (E) Anticholinergic action measured as mydriasis; type: in vivo, mice; conditions: mouse, in vivo, po
Description: (§1) (E) Anticholinergic action measured as mydriasis (mice).

[4] = test system: blood-pressure effect of noradrenaline and adrenaline; assay: (F) Autonomous test model after IV catecholamine administration (potentiation of blood-pressure effect of noradrenaline and adrenaline); type: in vivo, dogs; conditions: for Potentiation of catecholamine blood-pressure effect (F): dogs, result in words
Description: (F) Autonomous test model in dogs after IV catecholamine administration.

mydriasis = assay: (E) Anticholinergic action measured as mydriasis; type: in vivo, mice; conditions: mice
Description: as §1

gastric secretion = assay: Shay preparation, gastric secretion; type: in vivo; conditions: po
[5] = 10 mg/kg s.c., control K 12 (4A), 13 (4B)

Structure (SMILES) | LD50 (Toxicity (LD50); po, i.g.) [mg/kg] | minimal effective dose ([1]; sc) [mg/kg] | minimal effective dose ([1]; po, i.g.) [mg/kg] | Anticholinergic action (mydriasis) (E) (mydriasis; up to 75 mg/kg s.c.) | Potentiation of catecholamine blood-pressure effect (F) [4] | also measured
CN(C)CCC=C1c2ccccc2CCc2ccccc21 [Amitryptyline, reference compound] | 200 | 5 | – | – | – | LD50 (Toxicity (LD50); sc): 100 mg/kg; Spontaneous motility (C), S = substance (spontaneous motility; 5 mg/kg s.c., control K 17): 4 impulses per minute; Influence on the sleeping period (D) ([2]; 5 mg/kg s.c.): +103%; ED50 [3]: 23 mg/kg; ED50 ([4]; Canis lupus familiaris, iv, read-out: Potentiation of catecholamine blood-pressure effect ED50 (F)): 1 mg/kg
CCN(CC)CCOc1cc(=O)c2ccccc2c2ccccc12 [Example 1, 5-(2-Diethylaminoethoxy)-7H-dibenzo(a,c)cyclohepten-5-one(7).hydrochloride] | 300 | 5 | 20 | no effect | no effect | Spontaneous motility (C), S = substance (spontaneous motility; 5 mg/kg s.c., control K 17): 20 impulses per minute; Influence on the sleeping period (D) ([2]; 5 mg/kg s.c.): -42%; inhibition at 25 mg/kg (gastric secretion; Shay preparation, 25 mg/kg i.g.): 56%
CN(C)CCCc1cc(=O)c2ccccc2c2ccccc12 [Example 4A, 5-(3-Dimethylaminopropyl)-7H-dibenzo(a,c)cyclohepten-5-one(7)] | 200 | 5 | 20 | no effect | no effect | Spontaneous motility (C), S = substance (spontaneous motility; [5]): 12 impulses per minute
CCN(CC)CCCc1cc(=O)c2ccccc2c2ccccc12 [Example 4B, 5-(3-Diethylaminopropyl)-7H-dibenzo(a,c)cyclohepten-5-one(7).oxalate] | 200 | 10 | 30 | no effect | no effect | Spontaneous motility (C), S = substance (spontaneous motility; [5]): 21 impulses per minute; Influence on the sleeping period (D) ([2]; 10 mg/kg s.c.): +11%
CNCCCc1cc(=O)c2ccccc2c2ccccc12 [Example 4C, 5-(3-methylaminopropyl)-7H-dibenzo(a,c)cyclohepten-5-one(7).oxalate] | 800 | – | 75 | – | no effect | Spontaneous motility (C), S = substance (spontaneous motility; 150 mg/kg i.g., control K 15): 19 impulses per minute; Anticholinergic action (mydriasis) (E) (mydriasis; up to 200 mg/kg i.g.): no effect
Cc1ccccc1-n1c(C)nc2ccccc2c1=O [M] | – | – | – | – | – | Spontaneous motility (C), M = methaqualone (spontaneous motility; Amitryptyline column, control K 20): 2 impulses per minute; Spontaneous motility (C), M = methaqualone (spontaneous motility; Example 1 column, control K 20): 2 impulses per minute; Spontaneous motility (C), M = methaqualone (spontaneous motility; Example 4A column, control K 16): 3 impulses per minute; Spontaneous motility (C), M = methaqualone (spontaneous motility; Example 4B column, control K 20): 2 impulses per minute; Spontaneous motility (C), M = methaqualone (spontaneous motility; Example 4C column, control K 19): 6 impulses per minute
CN/C(=N/CCSCc1nc[nH]c1C)NC#N [cimetidine, reference compound] | – | – | – | – | – | inhibition at 80 mg/kg (gastric secretion; read-out: Inhibition of gastric secretion): 45%
